The structures appear in SMILES notation. Bounds are passed on as bounds.

The assay deals with T1, FBXL10 (Homo sapiens, UniProt Q8NHM5).
T1 construct: purchased BPS Bioscience 50120
T1 sequence (Q8NHM5 1-650): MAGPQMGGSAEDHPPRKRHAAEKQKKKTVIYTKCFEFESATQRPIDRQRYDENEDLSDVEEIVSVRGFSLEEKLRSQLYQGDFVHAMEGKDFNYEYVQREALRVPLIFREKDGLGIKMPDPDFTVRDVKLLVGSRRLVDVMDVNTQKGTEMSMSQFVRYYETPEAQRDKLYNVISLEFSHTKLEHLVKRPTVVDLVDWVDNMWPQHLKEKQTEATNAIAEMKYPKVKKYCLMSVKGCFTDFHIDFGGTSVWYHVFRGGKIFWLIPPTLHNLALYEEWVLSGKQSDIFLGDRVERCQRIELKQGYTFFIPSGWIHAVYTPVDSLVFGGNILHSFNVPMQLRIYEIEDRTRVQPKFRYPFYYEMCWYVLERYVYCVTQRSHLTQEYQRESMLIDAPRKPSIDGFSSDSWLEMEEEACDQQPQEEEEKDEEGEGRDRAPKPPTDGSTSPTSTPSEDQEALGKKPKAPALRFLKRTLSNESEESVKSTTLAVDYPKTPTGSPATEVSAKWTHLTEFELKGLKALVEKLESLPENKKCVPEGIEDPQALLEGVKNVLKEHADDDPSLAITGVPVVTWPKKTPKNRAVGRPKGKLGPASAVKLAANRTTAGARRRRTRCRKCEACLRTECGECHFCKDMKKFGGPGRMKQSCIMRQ
The assay is described as follows: FBXL10 in vitro enzyme inhibition assay (AlphaScreen). The class given is biochemical. Conditions: Table 5. The source says:
This assay determines the ability of a test compound to inhibit FBXL11, FBXL10, and PHF8 demethylase activity. Baculovirus expressed FBXL11 (GenBank Accession #NM_012308, AA1-1162) was purchased from BPS Bioscience (Cat#50102). Baculovirus expressed FBXL10 (GenBank Accession #NM_032590, AA 1-650) was purchased from BPS Bioscience (Cat #50120). Baculovirus expressed PHF8 (GenBank Accession NP_055922.1) was purchased from Active Motif (Cat#31435).
The ability of test compounds to inhibit the activity of FBXL10 was determined in 384-well plate format under the following reaction conditions: 0.3 nM FBXL10, 30 nM H3K36me2-biotin labeled peptide (Anaspec cat # 64442), 0.2 µM alpha-ketoglutaric acid in assay buffer of 50 mM HEPES, pH7.3, 0.005% Brij35, 0.5 mM TCEP, 0.2 mg/ml BSA, 50 µM sodium L-ascorbate, 5 µM ammonium iron(II) sulfate. Reaction product is determined quantitatively by AlphaScreen detection after the addition of detection reagents anti-H3K36me1 antibody, AlphaScreen® Streptavidin-coated Donor beads, and AlphaScreen® Protein A Acceptor beads in 50 mM HEPES, pH7.3, 10 mM NaCl, 0.005% Brij35, 5 mM EDTA, 2 mg/ml BSA to final 10 µg/ml beads.
The assay reaction was initiated by the following: 3 µl of the mixture of 90 nM H3K36me2-biotin labeled peptide and 0.6 µM alpha-ketoglutaric acid with 3 µl of 11-point serial diluted inhibitor in 3% DMSO are added to each well of 384 well Proxiplate (Perkin Elmer), followed by the addition of 3 µl of 0.9 nM FBXL10 to initiate the reaction. The reaction mixture is incubated at room temperature for 1 hour, and terminated by the addition of 3 µl of appropriate dilution of anti H3K36me1 antibody in 50 mM HEPES, pH7.3, 10 mM NaCl, 0.005% Brij35, 5 mM EDTA, 2 mg/ml BSA. Plates will then incubated at room temperature for 40 minutes, followed by addition of 3 µl of 50 µg/ml AlphaScreen® Streptavidin-coated Donor beads and AlphaScreen® Protein A Acceptor beads in 50 mM HEPES, pH7.3, 10 mM NaCl, 0.005% Brij35, 5 mM EDTA, 2 mg/ml BSA. Plates will then be read by EnVision Multilabel Reader in AlphaScreen mode after minimum 2 hour incubation at room temperature. The AlphaScreen signal for each well is used to determine inhibition constant (IC50).
(In Alpha technology, singlet oxygen from a donor bead excites a nearby acceptor bead.)
`Fc1cccc2c1CCCC2Cn1cnc(-c2cc(-c3nn[nH]c3C(F)(F)F)ccn2)c1` (stereo not drawn) [Example 99, 2-{1-[(5-fluoro-1,2,3,4-tetrahydronaphthalen-1-yl)methyl]-1H-imidazol-4-yl}-4-[5-(trifluoromethyl)-1H-1,2,3-triazol-4-yl]pyridine] showed an IC50 of 100 to 1000 nM.

Turning to `Fc1ccc2c(c1)CCCC2Cn1cnc(-c2cc(-c3nn[nH]c3C(F)(F)F)ccn2)c1` (stereo not drawn) [Example 100, 2-{1-[(6-fluoro-1,2,3,4-tetrahydronaphthalen-1-yl)methyl]-1H-imidazol-4-yl}-4-[5-(trifluoromethyl)-1H-1,2,3-triazol-4-yl]pyridine], the IC50 was in the range of 100 to 1000 nM.

In the case of `Cc1ccccc1Cn1cnc(-c2cc(-c3nn[nH]c3C(F)(F)F)ccn2)c1` [Example 66, 2-{1-[(2-methylphenyl)methyl]-1H-imidazol-4-yl}-4-[5-(trifluoromethyl)-1H-1,2,3-triazol-4-yl]pyridine], the IC50 is at most 100 nM.

`Fc1cccc(F)c1Cn1cnc(-c2cc(-c3nn[nH]c3C(F)(F)F)ccn2)c1` [Example 69, 2-{1-[(2,6-difluorophenyl)methyl]-1H-imidazol-4-yl}-4-[5-(trifluoromethyl)-1H-1,2,3-triazol-4-yl]pyridine] displayed an IC50 of at most 100 nM.

Turning to `COc1cccc2c1C(Cn1cnc(-c3cc(-c4nn[nH]c4C(F)(F)F)ccn3)c1)CCC2` (stereo not drawn) [Example 107, 2-{1-[(8-methoxy-1,2,3,4-tetrahydronaphthalen-1-yl)methyl]-1H-imidazol-4-yl}-4-[5-(trifluoromethyl)-1H-1,2,3-triazol-4-yl]pyridine], the IC50 is 100 to 1000 nM.

Turning to `Fc1cc(F)c(CCn2cnc(-c3cc(-c4nn[nH]c4C(F)(F)F)ccn3)c2)cc1F` [Example 81, 4-[5-(trifluoromethyl)-1H-1,2,3-triazol-4-yl]-2-{1-[2-(2,4,5-trifluorophenyl)ethyl]-1H-imidazol-4-yl}pyridine], the IC50 is at most 100 nM.

For `COc1ccc2c(c1)CCCC2Cn1cnc(-c2cc(-c3nn[nH]c3C(F)(F)F)ccn2)c1` (stereo not drawn) [Example 105, 2-{1-[(6-methoxy-1,2,3,4-tetrahydronaphthalen-1-yl)methyl]-1H-imidazol-4-yl}-4-[5-(trifluoromethyl)-1H-1,2,3-triazol-4-yl]pyridine], the IC50 fell in the range of 100 to 1000 nM.

Compound `Fc1ccc(CCn2cnc(-c3cc(-c4nn[nH]c4C(F)(F)F)ccn3)c2)c(F)c1` [Example 86, 2-{1-[2-(2,4-difluorophenyl)ethyl]-1H-imidazol-4-yl}-4-[5-(trifluoromethyl)-1H-1,2,3-triazol-4-yl]pyridine] registered an IC50 of at most 100 nM.

In the case of `O=C(c1ccccc1)N1CCC[C@H](n2cnc(-c3cc(-c4nn[nH]c4C(F)(F)F)ccn3)c2)C1` [Example 90, 2-{1-[(3S)-1-benzoylpiperidin-3-yl]-1H-imidazol-4-yl}-4-[5-(trifluoromethyl)-1H-1,2,3-triazol-4-yl]pyridine], the IC50 is at most 100 nM.

The compound `FC(F)(F)c1[nH]nnc1-c1ccnc(-c2cn(CC3CCc4ccccc43)cn2)c1` (stereo not drawn) [Example 83, 2-{1-[(2,3-dihydro-1H-inden-1-yl)methyl]-1H-imidazol-4-yl}-4-[5-(trifluoromethyl)-1H-1,2,3-triazol-4-yl]pyridine] registered an IC50 of 100 to 1000 nM.

Compound `Fc1ccc(Cn2cnc(-c3cc(-c4nn[nH]c4C(F)(F)F)ccn3)c2)cc1` [Example 61, 2-{1-[(4-fluorophenyl)methyl]-1H-imidazol-4-yl}-4-[5-(trifluoromethyl)-1H-1,2,3-triazol-4-yl]pyridine] registered an IC50 of at most 100 nM.

With `FC(F)(F)c1[nH]nnc1-c1ccnc(-c2cn(Cc3ccc(Cl)cc3)cn2)c1` [Example 63, 2-{1-[(4-chlorophenyl)methyl]-1H-imidazol-4-yl}-4-[5-(trifluoromethyl)-1H-1,2,3-triazol-4-yl]pyridine], the IC50 is at most 100 nM.

Consider `Cc1ccc2c(c1)CCCC2Cn1cnc(-c2cc(-c3nn[nH]c3C(F)(F)F)ccn2)c1` (stereo not drawn) [Example 102, 2-{1-[(6-methyl-1,2,3,4-tetrahydronaphthalen-1-yl)methyl]-1H-imidazol-4-yl}-4-[5-(trifluoromethyl)-1H-1,2,3-triazol-4-yl]pyridine], for which the 50% inhibitory concentration (IC50) lay within 1000 to 10000 nM.

`FC(F)(F)c1[nH]nnc1-c1ccnc(-c2cn(CC3CCCc4ccccc43)cn2)c1` (stereo not drawn) [Example 58, 2-{1-[(1,2,3,4-tetrahydronaphthalen-1-yl)methyl]-1H-imidazol-4-yl}-4-[5-(trifluoromethyl)-1H-1,2,3-triazol-4-yl]pyridine] came in with an IC50 of at most 100 nM.

Turning to `Fc1ccc2c(c1)C(n1cnc(-c3cc(-c4nn[nH]c4C(F)(F)F)ccn3)c1)CC2` (stereo not drawn) [Example 85, 2-[1-(6-fluoro-2,3-dihydro-1H-inden-1-yl)-1H-imidazol-4-yl]-4-[5-(trifluoromethyl)-1H-1,2,3-triazol-4-yl]pyridine], the IC50 was at most 100 nM.

In the case of `FC(F)(F)c1[nH]nnc1-c1ccnc(-c2cn(CCc3ccc(Cl)cc3)cn2)c1` [Example 92, 2-{1-[2-(4-chlorophenyl)ethyl]-1H-imidazol-4-yl}-4-[5-(trifluoromethyl)-1H-1,2,3-triazol-4-yl]pyridine], the IC50 was at most 100 nM.

Consider `FC(F)(F)c1ccc(CCn2cnc(-c3cc(-c4nn[nH]c4C(F)(F)F)ccn3)c2)cc1` [Example 94, 4-[5-(trifluoromethyl)-1H-1,2,3-triazol-4-yl]-2-(1-{2-[4-(trifluoromethyl)phenyl]ethyl}-1H-imidazol-4-yl)pyridine], for which the IC50 was in the range of 100 to 1000 nM.

In the case of `Fc1cccc(CCn2cnc(-c3cc(-c4nn[nH]c4C(F)(F)F)ccn3)c2)c1F` [Example 79, 2-{1-[2-(2,3-difluorophenyl)ethyl]-1H-imidazol-4-yl}-4-[5-(trifluoromethyl)-1H-1,2,3-triazol-4-yl]pyridine], the IC50 was at most 100 nM.

`Fc1ccccc1CCn1cnc(-c2cc(-c3nn[nH]c3C(F)(F)F)ccn2)c1` [Example 84, 2-{1-[2-(2-fluorophenyl)ethyl]-1H-imidazol-4-yl}-4-[5-(trifluoromethyl)-1H-1,2,3-triazol-4-yl]pyridine]: the IC50 is at most 100 nM.

For the compound `FC(F)(F)c1[nH]nnc1-c1ccnc(-c2cn(CC3CCOc4ccccc43)cn2)c1` (stereo not drawn) [Example 98, 2-{1-[(3,4-dihydro-2H-1-benzopyran-4-yl)methyl]-1H-imidazol-4-yl}-4-[5-(trifluoromethyl)-1H-1,2,3-triazol-4-yl]pyridine], the IC50 was at most 100 nM.

`FC(F)(F)COc1ccccc1Cn1cnc(-c2cc(-c3nn[nH]c3C(F)(F)F)ccn2)c1` [Example 76, 2-(1-{[2-(2,2,2-trifluoroethoxy)phenyl]methyl}-1H-imidazol-4-yl)-4-[5-(trifluoromethyl)-1H-1,2,3-triazol-4-yl]pyridine] registered an IC50 of 100 to 1000 nM.

Consider `Cn1cnc(-c2cc(-c3nn[nH]c3C(F)(F)F)ccn2)c1-c1ccc(F)cc1` [Example 97, 2-[5-(4-fluorophenyl)-1-methyl-1H-imidazol-4-yl]-4-[5-(trifluoromethyl)-1H-1,2,3-triazol-4-yl]pyridine], for which the IC50 was at most 100 nM.

Regarding `COc1ccc2c(c1)C(Cn1cnc(-c3cc(-c4nn[nH]c4C(F)(F)F)ccn3)c1)CCC2` (stereo not drawn) [Example 106, 2-{1-[(7-methoxy-1,2,3,4-tetrahydronaphthalen-1-yl)methyl]-1H-imidazol-4-yl}-4-[5-(trifluoromethyl)-1H-1,2,3-triazol-4-yl]pyridine], the IC50 is 100 to 1000 nM.

`Cc1ccc(Cn2cnc(-c3cc(-c4nn[nH]c4C(F)(F)F)ccn3)c2)cc1` [Example 65, 2-{1-[(4-methylphenyl)methyl]-1H-imidazol-4-yl}-4-[5-(trifluoromethyl)-1H-1,2,3-triazol-4-yl]pyridine]: the IC50 is at most 100 nM.

One may read the IC50 as the concentration that inhibits the measured activity by half.

The values above are taken from EP3436445B1, “HISTONE DEMETHYLASE INHIBITORS” (Celgene Quanticel Research, Inc., priority 2016, dated 2017).
